In article PMC9486541, “Design, synthesis and cytotoxic evaluation of novel betulonic acid-diazine derivatives as potential antitumor agents” (Frontiers in Chemistry, 2022):

Legend:
[1] = test system: Bel-7402; assay: MTT assay, Bel-7402 cells; type: cell-based, human; conditions: Homo sapiens, Bel-7402, 72 h incubation, read-out: Half maximal inhibitory concentration (IC50) values, Bel-7402
Excerpt: (§1) The human hepatocellular carcinoma cell line (HepG2), human hepatocellular carcinoma cell line (Bel-7402), human cervical cancer cell line (Hela), human breast adenocarcinoma cell line (MCF-7) and Madin-Darby canine kidney cell line (MDCK) were obtained from the Chinese Academy of Medical Sciences and Peking Union Medical College. Cultures were maintained as monolayer in RPMI-1640/DMEM supplemented with 10% (v/v) fetal bovine serum (FBS) and 1% (v/v) penicillin/streptomycin (Thermo Technologies, New York, NY, United States) under a humidified atmosphere containing 5% CO2 at 37°C. The BoA derivatives and positive control drugs (BoA and DDP) under study were dissolved in DMSO (Sigma, St. Louis, MO, United States) and added at required concentrations to the cell culture. Cells incubated without the preparations served as the control.
(§2) The antitumor activity was assessed by MTT assay, as previously reported ([Fang et al., 2018]). Each tested compound and positive control drugs were dissolved in DMSO and diluted with the medium to the test concentrations, and the final concentration of DMSO in the culture medium was controlled at less than 0.5% (v/v). Briefly, cells were cultured at 37°C and dispersed in replicates in 96-well plates with HepG2, Bel-7402, HeLa, MCF-7 and MDCK for 24 h. Fresh medium along with compounds (BoAA-BoAE, BoA2A-BoA2G, BoA3A-BoA3G, BoA4A-BoA4G) at different concentrations was then added to individual wells and incubated for 72 h, with BoA and DDP as the positive control. Experiments on FXR expression were separated into three groups: Control (PBS), BoA2C (8 μM), and BoA2C (8 μM) + DY268 (10 μM) ([Giordano et al., 2016]), with three repeating wells in each. In separate wells, BoA2C and DY268 were introduced and cultured for 72 h. After 72 h, the cell was incubated with MTT solution (0.5 mg/ml) for an additional 4 h at 37°C. The produced formazan crystals were solubilized with DMSO, and the optical density of solution was measured at 570 nm using a plate reader (BIORAD 550 spectrophotometer, Bio-rad Life Science Development Ltd., Beijing, China). Wells without drugs were used to be blanks. The IC50 values were defined as the concentration of compounds that produced a 50% proliferation inhibition of surviving cells and calculated using the Graph Pad Prism 5. The inhibitory rate was calculated in the following Equation 1, where OD is the optical density: % inhibition=[1−(OD Sample group−OD Blank group)/(OD Control group−OD Blank group)]×100% (1)

[2] = test system: MCF-7; assay: MTT assay, MCF-7 cells; type: cell-based, human; conditions: Homo sapiens, MCF7, 72 h incubation, read-out: Half maximal inhibitory concentration (IC50) values, MCF-7
Excerpt: as §1, §2

[3] = test system: MCF-7 cells; assay: Wound healing assay; type: cell-based, human; conditions: 8 μM, 0, 24, 48 h, compared to control group
Experimental: MCF-7 cells were seeded in six-well plates at a density of […] and incubated at 37°C to achieve 100 percent confluence. After starving the cells for 24 h, a wound (cell-free) was drawn across the center of the well using the tip of a 1 ml plastic pipette. Wells were cleaned twice with PBS before being treated for 48 h with BoA2C (8 μM). At 0 h, 24 h, and 48 h, cells were viewed and photographed in randomly selected fields using an inverted light microscope (Nikon).

[4] = test system: MDCK cells; assay: DAPI staining of nuclear changes, MDCK; type: cell-based, canine; conditions: MDCK cells, 2, 4, 8 μM

C=C(C)[C@@H]1CC[C@]2(C(=O)OCCOC(=O)c3cnc(C)cn3)CC[C@]3(C)[C@H](CC[C@@H]4[C@@]5(C)CCC(=O)C(C)(C)[C@@H]5CC[C@]43C)[C@@H]12 [BoA2C, (5-Methylpyrazin-2-acyloxy)-ethyl-3-oxolup-20(29)-en-28-oate]
IC50 [1]: 3.65 ± 0.43 µM
melting point: 139 to 141 °C
IC50 [2]: 3.39 ± 0.07 µM
migration of cells in the scratch wound [3]: obviously reduced the migration of MCF-7 cells
nuclear damage (DAPI staining) [4]: did not show a significant nuclear damage
